Laboratory results published in publication PMC12198282, “Application of a high-density microelectrode array assay using a 3D human iPSC-derived brain microphysiological system model for in vitro neurotoxicity screening of environmental compounds” (Archives of Toxicology, 2025).
Where two headings read alike, the source gives them in different places.

Legend:
BrainSpheres = assay: Cytotoxicity evaluation, resazurin assay (BrainSphere.Cyto); format: cell-based, human; conditions: for Cytotoxicity hit / hitc BrainSphere.Cyto / AC50: resazurin; for Cytotoxicity hit: after 13 days of exposure; for hitc BrainSphere.Cyto: day 13, tcplfit2; for AC50: day 13, Supplement 3 prints it also for curves with hit call 0, read-out: ac50 BrainSphere.Cyto; for BMD BrainSphere.Cyto: tcplfit2 BMD at benchmark response (1.349*SD of baseline controls); for ACC BrainSphere.Cyto: tcplfit2 output ACC, activity cutoff in Supplemental Table 1; for Top BrainSphere.Cyto: top of winning model, response normalized as percent of vehicle control, negative = decrease; on hitc BrainSphere.Cyto: key: 1 (active); 0 (inactive)
Procedure: For the resazurin assay, BrainSpheres were cultured for 7 weeks in non-treated 6-well plates under gyratory shaking. Subsequently, the cells were exposed in the same manner as the HD-MEA plates. This assay was used to determine cell viability after exposure for 13 days to the different compounds. After exposure, resazurin diluted in PBS was added directly to the 6-well plates to a final concentration of 0.1 mg/ml. The plates were then put in an incubator for 3 h at 37 °C, 5% CO2. Then, 100 µl of the media was collected and transferred in a 96-well plate for fluorescence analysis, which was done at ex:530 nm/em:590 nm in a multi-well fluorometric reader CytoFluor series 4000 (PerSeptive Biosystems, Inc).
Ten metrics were measured to evaluate changes in neural activity in the BrainSphere MEA assay (Table 3). Considering the complexity of the data which includes seven recording days for each single ROI in a well, an area under the curve (AUC) metric was used to reduce activity across time as described in previous publications (Brown et al. [2016]; Frank et al. [2017b]; Shafer et al. [2019]). […] For concentration–response modeling, the mean AUC values across all the BrainSpheres per well (technical replicates) was computed for each endpoint, such that each concentration included biological replicates from at least three separate wells on three separate plates, representing each individual experiment. The mean AUC values were used for concentration–response modeling using the R package tcplfit2 (version 0.1.6) (Sheffield et al. [2022]). Data were normalized as a percent of vehicle control wells by plate using the equation: resp.pc=rval-bval/bval×100 where resp.pc is the percent of control value, rval is the response value, and bval is the baseline value (defined as the mean of the vehicle control and the lowest tested concentration). […] The activity cutoff was defined as 3 times the median absolute deviation (bmad) of baseline values. A curve was defined as ‘active’ if the continuous hit call was ≥ 0.9. See Supplemental Table 1 for the bmad, activity cutoff threshold, SD, and benchmark response for each endpoint in the BrainSphere MEA. Potency was defined as the concentration at 50% maximal activity (AC50 log10 µM).

2D rat cortical cultures = conditions: cited from earlier work; for AC50: rNFA mc5; for hitc CCTE_Shafer_MEA_dev_active_electrodes_number / hitc CCTE_Shafer_MEA_dev_burst_duration_mean / hitc CCTE_Shafer_MEA_dev_burst_rate / hitc CCTE_Shafer_MEA_dev_bursting_electrodes_number / hitc CCTE_Shafer_MEA_dev_correlation_coefficient_mean / hitc CCTE_Shafer_MEA_dev_firing_rate_mean / hitc CCTE_Shafer_MEA_dev_inter_network_spike_interval_mean / hitc CCTE_Shafer_MEA_dev_interburst_interval_mean / hitc CCTE_Shafer_MEA_dev_mutual_information_norm / hitc CCTE_Shafer_MEA_dev_network_spike_duration_std / hitc CCTE_Shafer_MEA_dev_network_spike_number / hitc CCTE_Shafer_MEA_dev_network_spike_peak / hitc CCTE_Shafer_MEA_dev_per_burst_interspike_interval / hitc CCTE_Shafer_MEA_dev_per_burst_spike_percent / hitc CCTE_Shafer_MEA_dev_per_network_spike_spike_number_mean / hitc CCTE_Shafer_MEA_dev_per_network_spike_spike_percent / hitc CCTE_Shafer_MEA_dev_spike_duration_mean: rNFA mc5 hit call; on hitc CCTE Shafer MEA dev active electrodes number: key: 1 (active); 0 (inactive); on hitc CCTE Shafer MEA dev burst duration mean: key: 1 (active); 0 (inactive); on hitc CCTE Shafer MEA dev burst rate: key: 1 (active); 0 (inactive); on hitc CCTE Shafer MEA dev bursting electrodes number: key: 1 (active); 0 (inactive); on hitc CCTE Shafer MEA dev correlation coefficient mean: key: 1 (active); 0 (inactive); on hitc CCTE Shafer MEA dev firing rate mean: key: 1 (active); 0 (inactive); on hitc CCTE Shafer MEA dev inter network spike interval mean: key: 1 (active); 0 (inactive); on hitc CCTE Shafer MEA dev interburst interval mean: key: 1 (active); 0 (inactive); on hitc CCTE Shafer MEA dev mutual information norm: key: 1 (active); 0 (inactive); on hitc CCTE Shafer MEA dev network spike duration std: key: 1 (active); 0 (inactive); on hitc CCTE Shafer MEA dev network spike number: key: 1 (active); 0 (inactive); on hitc CCTE Shafer MEA dev network spike peak: key: 1 (active); 0 (inactive); on hitc CCTE Shafer MEA dev per burst interspike interval: key: 1 (active); 0 (inactive); on hitc CCTE Shafer MEA dev per burst spike percent: key: 1 (active); 0 (inactive); on hitc CCTE Shafer MEA dev per network spike spike number mean: key: 1 (active); 0 (inactive); on hitc CCTE Shafer MEA dev per network spike spike percent: key: 1 (active); 0 (inactive); on hitc CCTE Shafer MEA dev spike duration mean: key: 1 (active); 0 (inactive)
[1] = aenm active_electrodes_number, read-out: ac50 CCTE_Shafer_MEA_dev_active_electrodes_number
[2] = aenm bursting_electrodes_number, read-out: ac50 CCTE_Shafer_MEA_dev_bursting_electrodes_number
[3] = aenm correlation_coefficient_mean, read-out: ac50 CCTE_Shafer_MEA_dev_correlation_coefficient_mean
[4] = aenm mutual_information_norm, read-out: ac50 CCTE_Shafer_MEA_dev_mutual_information_norm
[5] = aenm network_spike_peak, read-out: ac50 CCTE_Shafer_MEA_dev_network_spike_peak
[6] = aenm per_burst_spike_percent, read-out: ac50 CCTE_Shafer_MEA_dev_per_burst_spike_percent
[7] = aenm per_network_spike_spike_number_mean, read-out: ac50 CCTE_Shafer_MEA_dev_per_network_spike_spike_number_mean
[8] = aenm per_network_spike_spike_percent, read-out: ac50 CCTE_Shafer_MEA_dev_per_network_spike_spike_percent
[9] = aenm spike_duration_mean, read-out: ac50 CCTE_Shafer_MEA_dev_spike_duration_mean
[10] = aenm bursting_electrodes_number
[11] = aenm correlation_coefficient_mean
[12] = aenm inter_network_spike_interval_mean
[13] = aenm network_spike_duration_std
[14] = aenm per_burst_interspike_interval
[15] = aenm per_network_spike_spike_number_mean
[16] = aenm per_network_spike_spike_percent

Structure (SMILES): [CH3][Hg][Cl] [Methylmercury]
- Cytotoxicity / cell viability in the BrainSphere resazurin assay (in words) (BrainSpheres; day 13 of exposure): magnitude of the response was not sufficient to indicate a positive response
- Cytotoxicity hit (BrainSpheres): 0
- hitc BrainSphere.Cyto (BrainSpheres): 0
- AC50 (BrainSpheres): 190 nM
- BMD BrainSphere.Cyto (BrainSpheres): 0.15 µM
- ACC BrainSphere.Cyto (BrainSpheres): 0.18 µM
- Top BrainSphere.Cyto (BrainSpheres): −10
- AC50 (2D rat cortical cultures; [1]): 360 nM
- AC50 (2D rat cortical cultures; aenm burst_duration_mean, read-out: ac50 CCTE_Shafer_MEA_dev_burst_duration_mean): 260 nM
- AC50 (2D rat cortical cultures; aenm burst_rate, read-out: ac50 CCTE_Shafer_MEA_dev_burst_rate): 207 nM
- AC50 (2D rat cortical cultures; [2]): 370 nM
- AC50 (2D rat cortical cultures; [3]): 306 nM
- AC50 (2D rat cortical cultures; aenm firing_rate_mean, read-out: ac50 CCTE_Shafer_MEA_dev_firing_rate_mean): 177 nM
- AC50 (2D rat cortical cultures; aenm inter_network_spike_interval_mean, read-out: ac50 CCTE_Shafer_MEA_dev_inter_network_spike_interval_mean): 6 nM
- AC50 (2D rat cortical cultures; aenm interburst_interval_mean, read-out: ac50 CCTE_Shafer_MEA_dev_interburst_interval_mean): 340 nM
- AC50 (2D rat cortical cultures; [4]): 134 nM
- AC50 (2D rat cortical cultures; aenm network_spike_duration_std, read-out: ac50 CCTE_Shafer_MEA_dev_network_spike_duration_std): 164 nM
- AC50 (2D rat cortical cultures; aenm network_spike_number, read-out: ac50 CCTE_Shafer_MEA_dev_network_spike_number): 87 nM
- AC50 (2D rat cortical cultures; [5]): 356 nM
- AC50 (2D rat cortical cultures; aenm per_burst_interspike_interval, read-out: ac50 CCTE_Shafer_MEA_dev_per_burst_interspike_interval): 322 nM
- AC50 (2D rat cortical cultures; [6]): 306 nM
- AC50 (2D rat cortical cultures; [7]): 536 nM
- AC50 (2D rat cortical cultures; [8]): 309 nM
- AC50 (2D rat cortical cultures; [9]): 275 nM
- hitc CCTE_Shafer_MEA_dev_active_electrodes_number (2D rat cortical cultures; aenm active_electrodes_number): 1
- hitc CCTE_Shafer_MEA_dev_burst_duration_mean (2D rat cortical cultures; aenm burst_duration_mean): 1
- hitc CCTE_Shafer_MEA_dev_burst_rate (2D rat cortical cultures; aenm burst_rate): 1
- hitc CCTE_Shafer_MEA_dev_bursting_electrodes_number (2D rat cortical cultures; [10]): 1
- hitc CCTE_Shafer_MEA_dev_correlation_coefficient_mean (2D rat cortical cultures; [11]): 1
- hitc CCTE_Shafer_MEA_dev_firing_rate_mean (2D rat cortical cultures; aenm firing_rate_mean): 1
- hitc CCTE_Shafer_MEA_dev_inter_network_spike_interval_mean (2D rat cortical cultures; [12]): 1
- hitc CCTE_Shafer_MEA_dev_interburst_interval_mean (2D rat cortical cultures; aenm interburst_interval_mean): 1
- hitc CCTE_Shafer_MEA_dev_mutual_information_norm (2D rat cortical cultures; aenm mutual_information_norm): 1
- hitc CCTE_Shafer_MEA_dev_network_spike_duration_std (2D rat cortical cultures; [13]): 1
- hitc CCTE_Shafer_MEA_dev_network_spike_number (2D rat cortical cultures; aenm network_spike_number): 1
- hitc CCTE_Shafer_MEA_dev_network_spike_peak (2D rat cortical cultures; aenm network_spike_peak): 1
- hitc CCTE_Shafer_MEA_dev_per_burst_interspike_interval (2D rat cortical cultures; [14]): 1
- hitc CCTE_Shafer_MEA_dev_per_burst_spike_percent (2D rat cortical cultures; aenm per_burst_spike_percent): 1
- hitc CCTE_Shafer_MEA_dev_per_network_spike_spike_number_mean (2D rat cortical cultures; [15]): 1
- hitc CCTE_Shafer_MEA_dev_per_network_spike_spike_percent (2D rat cortical cultures; [16]): 1
- hitc CCTE_Shafer_MEA_dev_spike_duration_mean (2D rat cortical cultures; aenm spike_duration_mean): 1

Structure (SMILES): Brc1ccc(Oc2ccc(Br)cc2Br)c(Br)c1 [BDE- 47]
- Cytotoxicity hit (BrainSpheres): 0
- hitc BrainSphere.Cyto (BrainSpheres): 0
- AC50 (BrainSpheres): 45000 nM
- BMD BrainSphere.Cyto (BrainSpheres): 79 µM
- ACC BrainSphere.Cyto (BrainSpheres): 89 µM
- Top BrainSphere.Cyto (BrainSpheres): 4.9
- AC50 (2D rat cortical cultures; [1]): 10000 nM
- AC50 (2D rat cortical cultures; [2]): 23 nM
- AC50 (2D rat cortical cultures; [3]): 4260 nM
- AC50 (2D rat cortical cultures; [4]): 13 nM
- AC50 (2D rat cortical cultures; [5]): 10000 nM
- AC50 (2D rat cortical cultures; [6]): 14200 nM
- AC50 (2D rat cortical cultures; [7]): 4000 nM
- AC50 (2D rat cortical cultures; [8]): 15100 nM
- AC50 (2D rat cortical cultures; [9]): 15000 nM
- hitc CCTE_Shafer_MEA_dev_active_electrodes_number (2D rat cortical cultures; aenm active_electrodes_number): 1
- hitc CCTE_Shafer_MEA_dev_burst_duration_mean (2D rat cortical cultures; aenm burst_duration_mean): 0
- hitc CCTE_Shafer_MEA_dev_burst_rate (2D rat cortical cultures; aenm burst_rate): 0
- hitc CCTE_Shafer_MEA_dev_bursting_electrodes_number (2D rat cortical cultures; [10]): 1
- hitc CCTE_Shafer_MEA_dev_correlation_coefficient_mean (2D rat cortical cultures; [11]): 1
- hitc CCTE_Shafer_MEA_dev_firing_rate_mean (2D rat cortical cultures; aenm firing_rate_mean): 0
- hitc CCTE_Shafer_MEA_dev_inter_network_spike_interval_mean (2D rat cortical cultures; [12]): 0
- hitc CCTE_Shafer_MEA_dev_interburst_interval_mean (2D rat cortical cultures; aenm interburst_interval_mean): 0
- hitc CCTE_Shafer_MEA_dev_mutual_information_norm (2D rat cortical cultures; aenm mutual_information_norm): 1
- hitc CCTE_Shafer_MEA_dev_network_spike_duration_std (2D rat cortical cultures; [13]): 0
- hitc CCTE_Shafer_MEA_dev_network_spike_number (2D rat cortical cultures; aenm network_spike_number): 0
- hitc CCTE_Shafer_MEA_dev_network_spike_peak (2D rat cortical cultures; aenm network_spike_peak): 1
- hitc CCTE_Shafer_MEA_dev_per_burst_interspike_interval (2D rat cortical cultures; [14]): 0
- hitc CCTE_Shafer_MEA_dev_per_burst_spike_percent (2D rat cortical cultures; aenm per_burst_spike_percent): 1
- hitc CCTE_Shafer_MEA_dev_per_network_spike_spike_number_mean (2D rat cortical cultures; [15]): 1
- hitc CCTE_Shafer_MEA_dev_per_network_spike_spike_percent (2D rat cortical cultures; [16]): 1
- hitc CCTE_Shafer_MEA_dev_spike_duration_mean (2D rat cortical cultures; aenm spike_duration_mean): 1
